Measurements taken from US8822517B2, “Arylosulfonamides for the treatment of CNS diseases” (Adamed SP. Z O.O., priority 2010, dated 2014).

Experiments:
[1] = target: T1, serotonine transporter (SERT) receptor (Homo sapiens, UniProt P31645); experiment: Binding assay SERT (h), [3H]imipramine, CHO cells; settings: read-out: SERT [%]
T1 construct: expressed in transfected cells; host or cells: CHO cells
Outline: (§1)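 Single-concentration test (1×10^−6 M). Total and non-specific binding were counted by scintillation, and their difference defines specific binding.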

sigma σ receptor = experiment: Binding assay σ (non-selective), [3H]DTG, rat cerebral cortex; settings: percent inhibition of control specific binding; compounds tested at 1×10^−6 M
Outline: as §1

adrenergic α1 receptor = experiment: Binding assay α1 (non-selective), [3H]prazosin, rat cerebral cortex; settings: percent inhibition of control specific binding; compounds tested at 1×10^−6 M
Outline: as §1

muscarinic M3 receptor = target: T2, muscarinic M3 receptor (Homo sapiens, UniProt P20309); experiment: Binding assay M3 (h), [3H]4-DAMP, CHO cells; settings: read-out: M3 [%]
T2 construct: expressed in transfected cells; host or cells: CHO cells
Outline: as §1

dopaminergic D2 receptor [2] = target: T3, dopaminergic D2 receptor (Homo sapiens, UniProt P14416); experiment: Cellular functional assay, dopaminergic D2 receptor (agonism/antagonism); type: cell-based; settings: HEK293; for activation at 1 µM: agonist effect, percent of control specific agonist response (3 μM dopamine for control), 1×10^−6 M, D2S (h), HEK-293 cells, read-out: D2-ag [%]; for inhibition at 1 µM: read-out: D2-antag. [%]
Description: (§2) The compounds were tested at the concentration of 1×10^−6M.
(§3) In the Tables ag refers to agonism, and antag to antagonism).
Target sequence in this assay (P14416 whole entry): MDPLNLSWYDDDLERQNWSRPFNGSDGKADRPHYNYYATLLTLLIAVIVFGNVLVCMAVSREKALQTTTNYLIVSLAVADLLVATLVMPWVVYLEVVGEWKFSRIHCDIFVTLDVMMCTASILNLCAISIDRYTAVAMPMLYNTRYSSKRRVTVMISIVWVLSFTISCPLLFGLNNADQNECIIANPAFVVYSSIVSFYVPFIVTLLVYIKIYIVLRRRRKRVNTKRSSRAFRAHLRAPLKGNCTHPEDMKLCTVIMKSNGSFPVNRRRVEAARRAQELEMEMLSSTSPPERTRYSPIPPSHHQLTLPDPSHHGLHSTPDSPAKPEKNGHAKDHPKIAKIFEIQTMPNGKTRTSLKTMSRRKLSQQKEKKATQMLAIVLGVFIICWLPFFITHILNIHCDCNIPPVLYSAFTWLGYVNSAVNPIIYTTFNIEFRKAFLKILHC

[3] = target: serotoninergic 5-HT2A receptor (Homo sapiens, UniProt P28223); experiment: Cellular functional assay, serotoninergic 5-HT2A receptor (agonism/antagonism); type: cell-based; settings: for activation at 1 µM: read-out: 5-HT2A -ag [%]; for inhibition at 1 µM: read-out: 5-HT2A -antag [%]
Description: […]. The compounds were tested at the concentration of 1×10^−6M.
Conditions and methodology (by reference to the literature) of cellular functional assays are given in Table 13 and the tests results for representative compounds are given in Table 14 (dopaminergic receptor D2), in Table 15 (dopaminergic receptor D3), in Table 16 (serotoninergic receptor 5-HT1A), in Table 17 (serotoninergic receptor 5-HT2A), in Table 18 (serotoninergic receptor 5-HT6), in Table 19 (serotoninergic receptor 5-HT7), in Table 20 (adrenergic α1 receptor), in Table 21 (adrenergic α2C receptor), in Table 22 (histaminergic H1 receptor) and in Table 23 (serotoninergic 5-HT2C receptor). In the Tables ag refers to agonism, and antag to antagonism).

[4] = target: T4, serotoninergic 5-HT6 receptor (Homo sapiens, UniProt P50406); experiment: Cellular functional assay, serotoninergic 5-HT6 receptor (agonism/antagonism); type: cell-based; settings: for activation at 1 µM: agonist effect, percent of control specific agonist response, compounds tested at 1×10^−6M, read-out: 5-HT6-ag [%]; for inhibition at 1 µM: read-out: 5-HT6-antag. [%]
Description: as §2, §3

[5] = target: T5, serotoninergic 5-HT7 receptor (Homo sapiens, UniProt P34969); experiment: Cellular functional assay, serotoninergic 5-HT7 receptor (agonism/antagonism); type: cell-based; settings: for activation at 1 µM: agonist effect, percent of control specific agonist response, compounds tested at 1×10^−6M, read-out: 5-HT7-ag [%]; for inhibition at 1 µM: read-out: 5-HT7-antag. [%]
Description: as §2, §3

adrenergic α2C receptor [6] = target: T6, adrenergic α2C receptor (Homo sapiens, UniProt P18825); experiment: Cellular functional assay, adrenergic α2C receptor (agonism/antagonism); type: cell-based; settings: for activation at 1 µM: agonist effect, percent of control specific agonist response, compounds tested at 1×10^−6M, read-out: α2C −ag [%]; for inhibition at 1 µM: read-out: α2C −antag. [%]
T6 sequence (P18825 1-462): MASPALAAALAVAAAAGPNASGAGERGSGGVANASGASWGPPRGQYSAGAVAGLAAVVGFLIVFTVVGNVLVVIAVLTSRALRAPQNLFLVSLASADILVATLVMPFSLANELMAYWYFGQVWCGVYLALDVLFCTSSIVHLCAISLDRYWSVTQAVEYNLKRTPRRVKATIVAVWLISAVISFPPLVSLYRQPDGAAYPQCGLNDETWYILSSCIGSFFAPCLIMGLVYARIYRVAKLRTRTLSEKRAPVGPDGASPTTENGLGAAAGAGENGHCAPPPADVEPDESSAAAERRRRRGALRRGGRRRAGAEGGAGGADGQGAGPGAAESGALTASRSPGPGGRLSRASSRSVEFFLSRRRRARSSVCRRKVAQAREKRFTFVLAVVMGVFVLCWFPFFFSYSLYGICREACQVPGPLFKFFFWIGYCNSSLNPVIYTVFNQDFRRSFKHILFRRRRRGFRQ
Description: as §2, §3

dopaminergic D3 receptor [7] = target: T7, dopaminergic D3 receptor (Homo sapiens, UniProt P35462); experiment: Binding assay D3 (h), [3H]methyl-spiperone, CHO cells; set-up: expressed in transfected cells; host or cells: CHO cells; settings: read-out: D3 [%]
Outline: as §1

[8] = target: T4, serotoninergic 5-HT6 receptor; experiment: Binding assay 5-HT6 (h), [3H]LSD, CHO cells; set-up: expressed in transfected cells; host or cells: CHO cells; settings: read-out: 5-HT6
Outline: as §1

[9] = target: T5, serotoninergic 5-HT7 receptor; experiment: Binding assay 5-HT7 (h), [3H]LSD, CHO cells; set-up: expressed in transfected cells; host or cells: CHO cells; settings: read-out: 5-HT7
Outline: as §1

adrenergic α2C receptor [10] = target: T6, adrenergic α2C receptor; experiment: Binding assay α2C (h), [3H]RX 821002, CHO cells; set-up: expressed in transfected cells; host or cells: CHO cells; settings: read-out: α2C [%]
Outline: as §1

dopaminergic D2 receptor [11] = target: T3, dopaminergic D2 receptor; experiment: Binding assay D2S (h), [3H]methyl-spiperone, HEK-293 cells; set-up: expressed in transfected cells; host or cells: HEK-293 cells; settings: read-out: D2 [%]
Outline: as §1
Target sequence in this assay (P14416 1-414 isoform P14416-2): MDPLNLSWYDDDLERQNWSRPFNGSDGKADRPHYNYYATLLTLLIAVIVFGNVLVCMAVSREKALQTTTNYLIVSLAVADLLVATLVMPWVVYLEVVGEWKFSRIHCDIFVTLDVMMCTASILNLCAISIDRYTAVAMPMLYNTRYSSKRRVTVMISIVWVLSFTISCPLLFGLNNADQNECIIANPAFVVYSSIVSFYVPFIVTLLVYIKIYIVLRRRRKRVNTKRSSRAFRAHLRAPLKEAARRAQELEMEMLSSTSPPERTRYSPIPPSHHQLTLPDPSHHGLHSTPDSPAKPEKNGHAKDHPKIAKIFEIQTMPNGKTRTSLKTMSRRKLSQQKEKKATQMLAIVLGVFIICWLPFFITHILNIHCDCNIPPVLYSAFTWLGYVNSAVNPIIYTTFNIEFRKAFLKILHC

[12] = target: histaminergic H1 receptor (Homo sapiens, UniProt P35367); experiment: Binding assay H1 (h), [3H]pyrilamine, HEK-293 cells; set-up: expressed in transfected cells; host or cells: HEK-293 cells; settings: read-out: H1 [%]
Outline: as §1

dopaminergic D3 receptor [13] = target: T7, dopaminergic D3 receptor; experiment: Cellular functional assay, dopaminergic D3 receptor (agonism/antagonism); type: cell-based; settings: for inhibition at 1 µM: CHO, read-out: D3-antag. [%]; for activation at 1 µM: agonist effect, percent of control specific agonist response (300 nM dopamine for control), 1×10^−6 M, D3 (h), CHO cells, read-out: D3-ag [%]
Description: as §2, §3

T2 sequence (P20309 whole entry): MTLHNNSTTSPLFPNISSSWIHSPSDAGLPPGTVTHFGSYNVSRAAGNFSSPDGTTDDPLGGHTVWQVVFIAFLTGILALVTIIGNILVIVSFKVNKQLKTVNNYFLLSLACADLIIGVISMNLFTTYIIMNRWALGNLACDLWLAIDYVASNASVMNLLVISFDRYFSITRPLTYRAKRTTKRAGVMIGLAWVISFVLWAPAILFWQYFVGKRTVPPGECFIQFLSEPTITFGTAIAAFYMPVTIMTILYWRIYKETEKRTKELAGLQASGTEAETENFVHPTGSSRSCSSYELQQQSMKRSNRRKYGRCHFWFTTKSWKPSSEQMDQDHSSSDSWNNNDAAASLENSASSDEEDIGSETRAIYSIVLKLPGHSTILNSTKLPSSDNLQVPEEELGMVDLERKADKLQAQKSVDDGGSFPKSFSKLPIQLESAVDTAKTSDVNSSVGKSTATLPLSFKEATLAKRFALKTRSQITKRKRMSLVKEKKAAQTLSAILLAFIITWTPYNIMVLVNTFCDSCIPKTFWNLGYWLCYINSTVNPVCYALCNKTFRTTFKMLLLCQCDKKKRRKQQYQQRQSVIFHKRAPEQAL
serotoninergic 5-HT2A receptor, sequence (P28223 whole entry): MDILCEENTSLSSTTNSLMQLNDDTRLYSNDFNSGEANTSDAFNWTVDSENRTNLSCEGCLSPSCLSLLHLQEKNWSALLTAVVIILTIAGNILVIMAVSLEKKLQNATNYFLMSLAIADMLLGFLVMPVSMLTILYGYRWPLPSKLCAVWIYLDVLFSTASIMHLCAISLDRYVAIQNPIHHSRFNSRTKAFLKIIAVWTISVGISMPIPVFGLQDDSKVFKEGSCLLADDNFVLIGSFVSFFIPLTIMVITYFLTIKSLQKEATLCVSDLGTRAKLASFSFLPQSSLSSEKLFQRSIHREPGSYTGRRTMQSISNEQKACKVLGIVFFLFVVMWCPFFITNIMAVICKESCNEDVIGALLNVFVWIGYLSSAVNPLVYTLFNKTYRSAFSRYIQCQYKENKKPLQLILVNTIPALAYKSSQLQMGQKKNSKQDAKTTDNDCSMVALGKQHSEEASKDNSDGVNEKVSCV
histaminergic H1 receptor, sequence (P35367 whole entry): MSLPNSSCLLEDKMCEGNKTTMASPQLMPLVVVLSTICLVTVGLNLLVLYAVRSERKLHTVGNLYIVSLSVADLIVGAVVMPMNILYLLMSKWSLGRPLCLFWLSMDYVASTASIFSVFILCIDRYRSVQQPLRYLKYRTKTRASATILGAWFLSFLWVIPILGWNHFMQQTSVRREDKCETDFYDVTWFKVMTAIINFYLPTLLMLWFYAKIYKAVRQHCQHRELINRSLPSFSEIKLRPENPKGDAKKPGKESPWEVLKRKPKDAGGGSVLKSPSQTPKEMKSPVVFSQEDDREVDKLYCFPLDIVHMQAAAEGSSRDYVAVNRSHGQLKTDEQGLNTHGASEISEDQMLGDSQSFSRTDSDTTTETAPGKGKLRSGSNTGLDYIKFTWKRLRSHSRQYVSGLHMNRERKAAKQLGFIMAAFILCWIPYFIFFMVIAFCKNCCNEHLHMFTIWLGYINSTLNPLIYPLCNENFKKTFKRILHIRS
T7 sequence (P35462 whole entry): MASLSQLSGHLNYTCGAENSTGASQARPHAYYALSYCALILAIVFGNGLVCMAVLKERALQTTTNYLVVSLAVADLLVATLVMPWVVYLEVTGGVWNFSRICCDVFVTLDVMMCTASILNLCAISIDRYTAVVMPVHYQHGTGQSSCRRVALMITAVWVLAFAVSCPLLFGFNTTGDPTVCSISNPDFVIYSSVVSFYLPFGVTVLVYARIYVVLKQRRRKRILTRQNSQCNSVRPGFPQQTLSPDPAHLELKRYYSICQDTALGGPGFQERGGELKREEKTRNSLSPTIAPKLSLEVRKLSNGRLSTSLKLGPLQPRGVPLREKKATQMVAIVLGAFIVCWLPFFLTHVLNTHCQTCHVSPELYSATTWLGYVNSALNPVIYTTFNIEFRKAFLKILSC
T4 sequence (P50406 whole entry): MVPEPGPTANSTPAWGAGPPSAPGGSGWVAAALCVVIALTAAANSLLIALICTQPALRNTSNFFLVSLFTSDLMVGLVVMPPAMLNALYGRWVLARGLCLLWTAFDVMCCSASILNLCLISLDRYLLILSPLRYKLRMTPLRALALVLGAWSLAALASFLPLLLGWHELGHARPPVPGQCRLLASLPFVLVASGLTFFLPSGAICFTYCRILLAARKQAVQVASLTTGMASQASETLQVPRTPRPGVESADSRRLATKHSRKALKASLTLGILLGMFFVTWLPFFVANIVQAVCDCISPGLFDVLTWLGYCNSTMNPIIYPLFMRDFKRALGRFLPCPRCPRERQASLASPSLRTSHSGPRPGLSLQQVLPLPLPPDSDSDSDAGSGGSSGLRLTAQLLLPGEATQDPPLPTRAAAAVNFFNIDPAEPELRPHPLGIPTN
T5 sequence (P34969 whole entry): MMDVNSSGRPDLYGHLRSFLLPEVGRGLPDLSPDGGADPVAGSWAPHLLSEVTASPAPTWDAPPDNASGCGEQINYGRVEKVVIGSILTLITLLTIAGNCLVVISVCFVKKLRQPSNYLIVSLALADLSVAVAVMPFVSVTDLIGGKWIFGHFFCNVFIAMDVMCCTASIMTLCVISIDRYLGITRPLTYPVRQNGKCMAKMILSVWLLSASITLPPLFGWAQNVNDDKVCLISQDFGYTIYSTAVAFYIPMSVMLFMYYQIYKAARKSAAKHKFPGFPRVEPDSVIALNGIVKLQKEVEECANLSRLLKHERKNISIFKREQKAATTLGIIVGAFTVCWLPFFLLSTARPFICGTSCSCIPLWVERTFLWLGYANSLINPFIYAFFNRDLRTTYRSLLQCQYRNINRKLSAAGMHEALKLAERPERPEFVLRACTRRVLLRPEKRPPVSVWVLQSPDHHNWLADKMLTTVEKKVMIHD
T1 sequence (P31645 whole entry): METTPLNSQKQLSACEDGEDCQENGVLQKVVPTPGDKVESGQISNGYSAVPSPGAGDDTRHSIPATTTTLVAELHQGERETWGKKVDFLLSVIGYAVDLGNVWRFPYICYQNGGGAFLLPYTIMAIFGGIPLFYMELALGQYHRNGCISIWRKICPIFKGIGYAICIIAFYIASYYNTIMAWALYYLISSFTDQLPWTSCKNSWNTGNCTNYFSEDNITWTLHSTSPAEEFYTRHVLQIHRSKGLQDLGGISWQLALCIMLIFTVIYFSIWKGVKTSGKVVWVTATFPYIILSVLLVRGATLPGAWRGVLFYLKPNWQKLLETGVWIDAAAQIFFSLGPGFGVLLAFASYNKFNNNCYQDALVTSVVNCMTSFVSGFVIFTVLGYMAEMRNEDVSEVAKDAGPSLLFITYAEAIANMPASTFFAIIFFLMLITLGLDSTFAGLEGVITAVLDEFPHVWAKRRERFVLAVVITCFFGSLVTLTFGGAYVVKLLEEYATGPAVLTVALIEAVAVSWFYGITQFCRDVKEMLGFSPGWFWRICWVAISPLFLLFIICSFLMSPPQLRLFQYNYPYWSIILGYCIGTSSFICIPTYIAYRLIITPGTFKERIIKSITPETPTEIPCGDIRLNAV

SMILES | inhibition at 1 µM [1] [%] | σ [%] (sigma σ receptor) | α1 [%] (adrenergic α1 receptor) | inhibition at 1 µM (muscarinic M3 receptor) [%] | activation at 1 µM (dopaminergic D2 receptor [2]) [%] | inhibition at 1 µM (dopaminergic D2 receptor [2]) [%] | activation at 1 µM [3] [%] | inhibition at 1 µM [3] [%] | activation at 1 µM [5] [%] | inhibition at 1 µM [5] [%] | activation at 1 µM (adrenergic α2C receptor [6]) [%] | inhibition at 1 µM (adrenergic α2C receptor [6]) [%] | inhibition at 1 µM (dopaminergic D3 receptor [7]) [%] | inhibition at 1 µM [8] [%] | inhibition at 1 µM [9] [%] | inhibition at 1 µM (adrenergic α2C receptor [10]) [%] | inhibition at 1 µM (dopaminergic D2 receptor [11]) [%] | inhibition at 1 µM [12] [%] | inhibition at 1 µM (dopaminergic D3 receptor [13]) [%] | activation at 1 µM (dopaminergic D3 receptor [13]) [%] | further results
O=S(=O)(NCCCCN1CCN(c2noc3ccccc23)CC1)c1cccc2ccccc12 [Compound 13, N-(4-(4-(1,2-Benzoxazol-3-yl)piperazin-1-yl)butyl)naphthalene-1-sulphonamide] | 7 | 87 | 102 | -1 | 2 | 95 | 2 | 100 | 1 | 95 | -7 | 18 | 92 | 96 | 100 | 99 | 99 | 84 |  |  | activation at 1 µM [4]: 1%; inhibition at 1 µM [4]: 56%
O=c1[nH]c2ccc(S(=O)(=O)NCCCCN3CCN(c4noc5ccccc45)CC3)cc2o1 [Compound 16, N-(4-(4-(1,2-Benzoxazol-3-yl)piperazin-1-yl)butyl)-2-oxo-3H-1,3-benzoxazole-6-sulphonamide] | -3 | 2 | 101 | -1 | 4 | 98 | -1 | 98 | -1 | 80 | -7 | 9 | 99 | 94 | 99 | 101 | 99 | 97 |  |  | activation at 1 µM [4]: 0%; inhibition at 1 µM [4]: 50%
O=S(=O)(NCCCCN1CCN(c2cccc3[nH]ccc23)CC1)c1ccc2ccccc2c1 [Compound 26, N-{4-[4-(1H-Indol-4-yl)piperazin-1-yl]butyl}naphthalene-2-sulphonamide] | 14 | 99 | 98 | 17 | 29 | 99 | -1 | 77 | 14 | 13 | 25 | 53 | 98 | 51 | 98 | 100 | 97 | 52 | -8 | 64 | 
O=S(=O)(NCCCCN1CCN(c2cccc3[nH]ccc23)CC1)c1cc2ccccc2s1 [Compound 33, N-{4-[4-(1H-Indol-4-yl)piperazin-1-yl]butyl}-1-benzothiophene-2-sulphonamide] | -4 | 94 | 100 | 5 | 37 | 98 | -1 | 41 | 19 | 20 | -1 | 6 | 101 | 42 | 99 | 100 | 97 | 56 | -1 | 60 | 
O=S(=O)(NCCCCN1CCN(c2noc3ccccc23)CC1)c1c[nH]c2ncccc12 [Compound 89, N-[4-[4-(1,2-Benzoxazol-3-yl)piperazin-1-yl]butyl]-1H-pyrrolo[2,3-b]pyridine-3-sulphonamide] | 2 | −1 | 98 | 22 |  |  | -2 | 94 | -2 | 91 | -10 | 7 | 95 | 94 | 98 | 98 | 89 | 85 | 69 | -18 | activation at 1 µM [4]: 0%; inhibition at 1 µM [4]: 83%
O=S(=O)(NCCCCN1CCN(c2cccc3[nH]ccc23)CC1)c1ccc2cc(Cl)ccc2c1 [Compound 358, 6-Chloro-N-[4-[4-(1H-indol-4-yl)piperazin-1-yl]butyl]naphthalene-2-sulphonamide] | 40 | 84 | 88 | 17 | 30 | 84 | -1 | 57 | 10 | 28 | 28 | 48 | 99 | 70 | 94 | 101 | 96 | 74 | 35 | 47 | 
O=S(=O)(NCCCCN1CCN(c2cccc3[nH]ccc23)CC1)c1cc2ccc(Cl)cc2s1 [Compound 363, 6-Chloro-N-[4-[4-(1H-indol-4-yl)piperazin-1-yl]butyl]benzothiophene-2-sulphonamide] | 32 | 96 | 92 | 15 | 50 | 94 | -1 | 62 | 6 | 24 | 17 | 42 | 101 | 84 | 98 | 101 | 99 | 70 | -3 | 65 | 
